Results taken from article PMC8221158, “Novel pyrrolizines bearing 3,4,5-trimethoxyphenyl moiety: design, synthesis, molecular docking, and biological evaluation as potential multi-target cytotoxic agents” (Journal of Enzyme Inhibition and Medicinal Chemistry, 2021).

How the values were obtained:
porcine tubulin = biological target: T1, porcine tubulin (Sus scrofa, UniProt P02550+P02554); assay: Tubulin polymerisation fluorescence-based assay; type: biochemical; conditions: 5 μM, 37 °C, 60 min; qualitative
T1 construct: purchased Cytoskeleton Inc., Denver, CO BK011P
Method: The effect of compounds 16a,b,d on tubulin polymerisation was measured in vitro using tubulin polymerisation fluorescence-based assay (cytoskeleton, cat. BK011P, https://www.cytoskeleton.com/bk011p). The assay was performed following the previous report[22] and according to the manufacturer’s instructions. Briefly, 2 mg/mL porcine tubulin was dissolved in buffer 1 (80 mM PIPES, 2 mM MgCl2, 0.5 mM EGTA pH 6.9, 10 µM fluorescent reporter, 1 mM GTP, 15% glycerol) to a final concentration of […]. Then tubulin solution was transferred to a pre-warmed 96-well plate that contained the test compounds 16a,b,d (5 μM), paclitaxel (3 μM), CaCl2 (0.5 μM), and control buffer. The polymerisation of tubulin was monitored as fluorescence at 37 °C for 60 min. Relative fluorescence units (RFU) were determined at 360 nm for excitation and at 460 nm for emission using the Varioskan Flash spectral scanning multimode reader (Thermo Fisher Scientific, Roskilde, Denmark) at a reading speed of 1 cycle/min.
In the current study, the new compounds were designed bearing the trimethoxy phenyl moiety aiming to obtain new cytotoxic agents that can interfere with tubulin polymerisation in cancer cells. […] In this assay, light scattering by microtubules which is directly proportional to the concentration of the microtubule polymer was used as a measure of tubulin polymerisation. The study was performed using a fluorescence-based tubulin polymerisation assay kit (Cytoskeleton Inc., Denver, CO; Cat # BK011P) following the manufacturer’s instructions (https://www.cytoskeleton.com/bk011p) and according to the previous report.
Paclitaxel (3 μM) was used as a tubulin polymerisation enhancer (positive control, enhancer), while calcium chloride (CaCl2, 0.5 μM) was used as a positive control (inhibitor) as per the manufacturer’s instructions (https://www.cytoskeleton.com/pdf-storage/datasheets/bk011p.pdf). The vehicle was also used to evaluate the polymerisation when tubulin is incubated in the absence of the test compound. The effect of the selected compounds (5 μM) on tubulin polymerisation was evaluated and compared with those of the positive control. The results are represented in Figure 8.

[1] = tested on: MCF-7, HCT116, and A2780 cancer cell lines; assay: MTT assay, three cancer cell lines taken together (average, overall range); type: cell-based, human; conditions: Homo sapiens; MCF-7, HCT116, A2780; read-out: Average of the three IC50 values against the three cancer cell lines
Method: Cells from flasks of 70–80% confluency were separately seeded in 96-well flat-bottom microculture plates (Nalgene-Nunc, Thermo Fisher Scientific, Roskilde, Denmark) at a density of 3 × 10^3 cells (MCF-7, A2780, and MRC-5), 1 × 10^4 cells (HCT116), to a volume of 180 μL/well of culture medium. […] The final concentrations of each compound in wells were: 0–50 μM in 200 μL of media (DMSO 0.1%). Lapatinib (Cayman, Ann Arbor, MI) was used as a positive control at the same final concentrations. Medium only (20 μL) was added to each control well, and each concentration was tested in triplicates (n = 3). Following incubation for 72 h, 50 μL MTT was added into each well. Plates were incubated for 3 h, the supernatant was aspirated, and 100 μL of DMSO was added to each well. The optical density (OD) of the purple formazan is proportional to the number of viable cells. […] The absorbance of the reduced MTT was determined using a microplate reader A570 nm.

HCT116 = assay: MTT cell proliferation assay; type: cell-based, human; conditions: for IC50: Homo sapiens, HCT-116, MTT, 72 h treatment, n = 3, read-out: IC50 (µM ± SD) HCT116; for Selectivity index HCT116: IC50 MRC-5 / IC50 HCT116
Method: (§1) MCF-7 (human breast adenocarcinoma), A2780 (human ovarian cancer) and HCT116 (human colorectal carcinoma), and MRC-5 (normal foetal lung fibroblast) cell lines were bought from the ATCC and were cultured in flasks which were incubated at 37 °C in an atmosphere of 5% CO2, 95% air, and 100% relative humidity, to maintain continuous logarithmic growth. MCF-7, A2780, and HCT116 were maintained in RPMI-1640 media (100 U/mL penicillin, 100 µg/mL streptomycin, and 10% foetal bovine serum, Gibco, Carlsbad, CA). MRC-5 cells were maintained in EMEM (100 U/mL penicillin, 100 µg/mL streptomycin, and 10% foetal bovine serum, Gibco, Carlsbad, CA). Doxorubicin (5 μg/mL, for three months) added for RPMI-1640 media containing MCF7 cells was used to develop doxorubicin-resistant MCF7/ADR cells. All cancer and normal cell lines were cultured according to our previous report. Cells were used within 10–20 passages and were checked for mycoplasma every 6 months, by measuring the bioluminescence (Myco Alert sample detection kit; Lonza, Basel, Switzerland) using the multiplate reader (Synergy HT, BioTek, Winooski, VT).
(§2) The MTT assay was used to measure the cytotoxicity and growth inhibitory activities and cytotoxicity of the new compounds according to our previous report[13]^,[17]. Cells from flasks of 70–80% confluency were separately seeded in 96-well flat-bottom microculture plates (Nalgene-Nunc, Thermo Fisher Scientific, Roskilde, Denmark) at a density of 3 × 10^3 cells (MCF-7, A2780, and MRC-5), 1 × 10^4 cells (HCT116), to a volume of 180 μL/well of culture medium. A Neubauer haemocytometer was used for cell counting. Cells were incubated at 37 °C overnight to allow attachment to the wells. The final concentrations of each compound in wells were: 0–50 μM in 200 μL of media (DMSO 0.1%). Lapatinib (Cayman, Ann Arbor, MI) was used as a positive control at the same final concentrations. Medium only (20 μL) was added to each control well, and each concentration was tested in triplicates (n = 3). Following incubation for 72 h, 50 μL MTT was added into each well. Plates were incubated for 3 h, the supernatant was aspirated, and 100 μL of DMSO was added to each well. The optical density (OD) of the purple formazan is proportional to the number of viable cells. […] GraphPad Prism version 5.00 for Windows was used for analysis (La Jolla, CA). Cytotoxicity of the new compounds was calculated after treatment of cancer/normal cell lines for 72 h. The absorbance of the reduced MTT was determined using a microplate reader A570 nm.
(§3) The cytotoxic activity of the new compounds (15a–e, 16a–e, 20, and 21) was evaluated in vitro using MTT assay. The MTT assay depends on the reduction of the yellow tetrazole dye (MTT) to the purple formazan by the active mitochondrial dehydrogenase enzymes indicating the viability of the cells which can be measured as OD. The new compounds were evaluated against three non-resistant cancer cell lines: MCF-7, and A2780 cell lines were selected to compare cytotoxicity of the new compounds with the previously reported results of compounds 9a,b[13]. Cytotoxicity of the new compounds was also evaluated also against HCT116 cells which lacks COX-2 protein[33]^,[34].

MCF-7 = assay: MTT cell proliferation assay; type: cell-based, human; conditions: for IC50: Homo sapiens, MCF7, MTT, 72 h treatment, n = 3, read-out: IC50 (µM ± SD) MCF-7; for Selectivity index MCF-7: IC50 MRC-5 / IC50 MCF-7
Method: as §1, §2, §3

A2780 = assay: MTT cell proliferation assay; type: cell-based, human; conditions: for IC50: Homo sapiens, A2780, MTT, 72 h treatment, n = 3, read-out: IC50 (µM ± SD) A2780; for Selectivity index A2780: IC50 MRC-5 / IC50 A2780
Method: as §1, §2, §3

normal MRC-5 cells = assay: MTT assay, normal cells (cytotoxic selectivity); type: cell-based; conditions: Homo sapiens, MRC5, 72 h treatment, n = 3, read-out: IC50 (µM ± SD) MRC-5
Method: as §1, §2
Selectivity towards cancerous cells is one of the important issues which must be considered during the discovery and development of new anticancer agents. To assess the toxicity and selectivity of the new compounds (15a–e, 16a–e, 20, and 21), their growth inhibitory activities against normal human foetal lung fibroblast MRC-5 cells were evaluated using the MTT assay. […] The selectivity of the new compounds towards each of the three cancer cell lines was calculated by dividing their IC50 values against normal MRC-5 cells by their IC50 values against the corresponding cancer cell line (Table 3).

T1 sequence (P02550 whole entry): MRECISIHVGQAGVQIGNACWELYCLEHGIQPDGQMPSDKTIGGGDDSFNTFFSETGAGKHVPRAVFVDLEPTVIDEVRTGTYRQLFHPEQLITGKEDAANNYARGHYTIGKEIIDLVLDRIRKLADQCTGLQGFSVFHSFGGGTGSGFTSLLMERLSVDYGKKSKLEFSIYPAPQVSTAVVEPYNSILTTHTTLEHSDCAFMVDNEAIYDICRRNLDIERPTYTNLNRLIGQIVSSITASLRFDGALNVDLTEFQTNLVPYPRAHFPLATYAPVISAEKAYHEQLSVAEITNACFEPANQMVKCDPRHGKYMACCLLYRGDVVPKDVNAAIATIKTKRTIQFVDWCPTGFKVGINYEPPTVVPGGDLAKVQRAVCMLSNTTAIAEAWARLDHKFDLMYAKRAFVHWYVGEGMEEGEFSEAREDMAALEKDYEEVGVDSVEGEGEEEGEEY
T1 sequence (P02554 whole entry): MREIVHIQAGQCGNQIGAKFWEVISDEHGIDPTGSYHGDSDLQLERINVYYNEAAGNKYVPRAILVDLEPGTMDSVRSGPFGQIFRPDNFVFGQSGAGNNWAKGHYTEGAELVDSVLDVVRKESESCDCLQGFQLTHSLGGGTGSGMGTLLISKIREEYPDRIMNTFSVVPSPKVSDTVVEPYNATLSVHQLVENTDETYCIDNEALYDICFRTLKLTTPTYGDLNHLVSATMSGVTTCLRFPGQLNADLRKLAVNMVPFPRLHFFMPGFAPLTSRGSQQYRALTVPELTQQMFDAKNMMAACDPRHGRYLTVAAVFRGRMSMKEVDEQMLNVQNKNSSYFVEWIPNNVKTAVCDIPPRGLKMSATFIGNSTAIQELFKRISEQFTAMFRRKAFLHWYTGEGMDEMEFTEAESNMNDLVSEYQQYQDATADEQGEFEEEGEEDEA

effect on tubulin polymerisation (porcine tubulin)	IC50 [1]	IC50 (HCT116)	IC50 (MCF-7)	IC50 (A2780)	melting point	SMILES	Selectivity index HCT116 (HCT116)	Selectivity index MCF-7 (MCF-7)	Selectivity index A2780 (A2780)	IC50 (normal MRC-5 cells)
moderate inhibitory activity	66 nM	0.097 ± 0.001 µM	0.071 ± 0.001 µM	0.03 ± 0.005 µM	281 to 283 °C	COc1cc(C(=O)Nc2c(C#N)c3n(c2C(=O)Nc2ccc(Cl)cc2)CCC3)cc(OC)c1OC [16d, N-(4-Chlorophenyl)-7-cyano-6-(3,4,5-trimethoxybenzamido) -2,3-dihydro-1H-pyrrolizine-5-carboxamide]	83.51	114.08	270.00	8.1 ± 0.897 µM
weak	87 nM	0.135 ± 0.007 µM	0.082 ± 0.002 µM	0.044 ± 0.01 µM	253 to 255 °C	COc1cc(C(=O)Nc2c(C#N)c3n(c2C(=O)Nc2ccccc2)CCC3)cc(OC)c1OC [16a, 7-Cyano-N-phenyl-6-(3,4,5-trimethoxybenzamido)-2,3-dihydro-1H-pyrrolizine-5-carboxamide]	1.15	1.89	3.52	0.155 ± 0.062 µM
moderate inhibitory activity	113 nM	0.092 ± 0.001 µM	0.068 ± 0.009 µM	0.18 ± 0.043 µM	265 to 267 °C	COc1cc(C(=O)Nc2c(C#N)c3n(c2C(=O)Nc2ccc(C)cc2)CCC3)cc(OC)c1OC [16b, 7-Cyano-N-(p-tolyl)-6-(3,4,5-trimethoxybenzamido)-2,3-dihydro-1H-pyrrolizine-5-carboxamide]	63.60	86.04	32.51	5.85 ± 1.19 µM
